The structures appear in SMILES notation. Where “and” joins values, the source holds several entries; their conditions need not be identical. Identical values can stand only once.

One data set concerns COG-N-471x. The data set can be described thus: Pre-clinical efficacy study, COG-N-471x PDX. The data set is classed as in vivo. Particulars: 36 MBq/kg/fraction x 4 fractions, single mouse. As to the method: (§1) Patient demographics and genetic characteristics are listed in (Supplementary Tables 1, 2)[17]. The maximum tolerated dose (MTD) was determined to be 36 MBq/kg administered by intra-peritoneal injection twice weekly for a total of 4 dose fractions and this fractionated regimen was used in all studies (Supplementary Fig. 1)[18],[19]. […] Nine of 11 PDX models were MYCN amplified (Fig. 1b), which is a hallmark of high-risk neuroblastoma. Tumor response was measured as the maximum percent decrease in tumor volume after treatment and event-free survival (EFS) was measured by the area over the curve method with tumor events pre-defined by tumor growth exceeding 2 cm[3],[18].
(§2) The use of 2 mice per arm was based on the previously reported statistical analysis. […] Two additional dose levels of 12, and 24 MBq/kg/fraction were assessed in a subset of models and were administered as stated above. […] Tumors were measured using a digital caliper at the initiation of the study and two times per week during the treatment period. Tumor volumes were calculated as volume = ((diameter^1/2 + diameter^2/2)^3∗0.5236)/1000. Weights were obtained twice weekly and mice were monitored daily for signs of toxicity. […] Tumor response was assessed by best response defined as greatest reduction in tumor volume following the last dose and is presented as percent change in tumor volume. […]

The subject of a further data set is NB-1643x. Description: Pre-clinical efficacy study, NB-1643x PDX. The format is in vivo. The note with it: 36 MBq/kg/fraction x 4 fractions, single mouse. On the procedure: as §1, §2
The test system of a further data set is NB-1691x. The data set can be described thus: Pre-clinical efficacy study, NB-1691x PDX. The data set is classed as in vivo. Particulars: 36 MBq/kg/fraction x 4 fractions, single mouse. As to the method:
as §1, §2

The conditions of data set [1]: cited from earlier work.

Turning to `O=C1NCCn2c(-c3ccc([211At])cc3)nc3cccc1c32` [[^211At]PTT, Astatine-211-parthanatine], the “EFS by AOC method” value with COG-N-471x is 83.4773 days and 64.9075 days; in the data set with NB-1643x it was 90.5 days and 76.6 days and 90.5782 days and 76.6342 days; in the data set on NB-1691x, 50.9799 days and 78.469 days. Further, the “Tumor response (% growth from study initiation at ~ 200 mm3)” value in the data set on COG-N-471x is -100%; with NB-1643x, -95.4545% and -100%; in the data set on NB-1691x, -100%. The “fold more cytotoxic than the non-radioactive PARP inhibitor analog (KX1)” value in data set [1] was about 1 billion.

Values taken from article PMC9671962 (Communications Biology, 2022).
